Source: US12558428B2, “Heterobifunctional compounds and their use in treating disease” (Halda Therapeutics OpCo, Inc., priority 2024, dated 2026)
Where two headings read alike, the source gives them in different places.

What was measured:
Type in all cases: cell-based
[1] = test system: T-Rex 293 cells having increased expression of estrogen receptor alpha protein; assay: Cellular growth inhibition assay, T-Rex 293 cells, (+) doxycycline; conditions: T-REx-293, 72 h
Description: (§1) Exemplary compounds were tested for the ability to inhibit the proliferation of the following types of cells: (i) a T-Rex 293 cell line having increased expression of estrogen receptor alpha protein from exposure to doxycycline and (ii) a T-Rex 293 cell line lacking increased expression of estrogen receptor alpha protein.
(§2) The following types of cells were prepared for this experiment: (i) a T-Rex 293 cell line having increased expression of estrogen receptor alpha protein from exposure to doxycycline and (ii) a T-Rex 293 cell line lacking increased expression of estrogen receptor alpha protein. The ability of the test compounds to inhibit proliferation of the foregoing cell types was evaluated according to the procedures set forth below.
(§3) The doxycycline-inducible estrogen receptor alpha protein expressing cell line was established using the following protocol: T-Rex 293 cells were purchased from Invitrogen (Cat #R71007) and transfected using Lipofectamine 2000 with the wild-type estrogen receptor alpha protein sequence cloned into the pcDNA4/TO vector. Transfected cells were selected using 400 μg/mL Zeocin (Invitrogen Cat #R25001). Following selection, single clones were raised and maintained in Dulbecco's Modified Eagle Medium (DMEM) supplemented with 10% w/w Tetracycline-free fetal bovine serum (FBS) and 250 μg/mL Zeocin. Clones were analyzed for expression of estrogen receptor alpha protein in the presence and absence of 3 ng/mL doxycycline (Sigma Cat #D9891), and a single doxycycline-inducible clone (hereinafter “SC”) was selected for use in downstream assays.
(§4) The SC cells were seeded on poly-D-lysine coated, black clear-bottom 384-well plates at 2500/well, in 25 μL Phenol Red Free Dulbecco's Modified Eagle Medium (DMEM) supplemented with 10% w/w charcoal-dextran treated fetal bovine serum (FBS) and 1% w/w pen-strep, with or without 3 ng/mL doxycycline. Pen-Strep is a commercially available mixture of penicillin G and streptomycin, which is used in mammalian cell culture media to prevent bacterial contamination. Phenol Red Free Dulbecco's Modified Eagle Medium (DMEM) supplemented with 10% w/w charcoal-dextran treated fetal bovine serum (FBS) and 1% w/w pen-strep, with or without 3 ng/mL doxycycline is herein referred to as Treatment Medium. Following seeding of cells in the plates, the plates were spun at 300×g for 30 seconds, then equilibrated to room temperature for 30 minutes, and then deposited in a humidified tissue culture incubator maintained at 37° C. with 5% CO2.
(§5) At 24 hours after seeding of the cells, dilutions of test compound were prepared in DMSO and dissolved in Treatment Medium, to achieve a final DMSO concentration of 0.5% w/w, thereby providing the Test Compound Solution. A 25 μL aliquot of the Test Compound Solution was added to cells in the well plates. An equal volume of a solution containing DMSO and Treatment Medium was used as a negative control. Following treatment of cells with Test Compound Solution or said equal volume of a solution containing DMSO and Treatment Medium, the plates were spun at 300×g for 30 seconds, and then left in an incubator for 72 hours.
(§6) At the end of the treatment duration, cell viability was quantified with CellTiter-Glo 2.0 reagent (Promega Cat #G9243). For this purpose, plates were equilibrated to room temperature for 30 minutes, and then 25 μL of CellTiter-Glo 2.0 reagent was added to cells in the plate wells. Plates were then agitated on a shaker for two minutes at 500 rpm and subsequently incubated at room temperature for 10 minutes. Following incubation, the plates were spun at 3000×g for 30 seconds, then sealed with an optical adhesive cover, and luminescence readings were measured with an EnVision Plate Reader (Perkin Elmer).
(§7) Data was normalized using zero luminescence for baseline. […]

[2] = test system: T-Rex 293 cells lacking increased expression of estrogen receptor alpha protein; assay: Cellular growth inhibition assay, T-Rex 293 cells, (−) doxycycline; conditions: T-REx-293, 72 h
Description: as §1, §2, §3, §4, §5, §6, §7

[3] = test system: MCF7 cells (ATCC #HTB-22); assay: Cellular growth inhibition assay, MCF7 cells purchased from ATCC; conditions: Homo sapiens, MCF7, 144 h
Description: Exemplary compounds were tested for the ability to inhibit the proliferation of MCF7 cells.
MCF7 cells (ATCC #HTB-22 or ECACC #86012803) were cultured in RPMI 1640 medium supplemented with 10% heat-inactivated fetal bovine serum, 1% pen-strep, and 0.2 U/ml insulin. Cells were seeded in 25 μL of RPMI 1640 medium supplemented with 10% heat-inactivated fetal bovine serum, 1% pen-strep, 0.2 U/ml insulin in poly-D-lysine treated, black clear-bottom 384-well plates at 225 cells/well for MCF7 cells purchased from ECACC or 1,500 cells/well for MCF7 cells purchased from ATCC. Following seeding, plates were spun at 300×g for 30 seconds and cultured at 37° C. with 5% CO2 in a humidified tissue culture incubator.
At 24 hours after seeding, compounds were titrated in 100% DMSO and diluted in RPMI 1640 medium supplemented with 10% heat-inactivate fetal bovine serum, 1% pen-strep, and 0.2 U/ml insulin. A 25 μL aliquot of the compound/media mixture was added to cells, bringing the total volume in each well to 50 μL. An equal volume of DMSO without compound was used as a negative control. After treatment, plates were spun at 300×g for 30 seconds, then cultured at 37° C. with 5% CO2 for six days in a humidified tissue culture incubator.
On Day 6 of treatment, cell viability was quantified with CellTiter-Glo 2.0 reagent (Promega). Plates were equilibrated to room temperature for 30 minutes, then 25 μL of CellTiter-Glo 2.0 reagent was added to cells, bringing the total volume in each well to 75 μL. After reagent was added, plates were mixed on a shaker for two minutes at 500 rpm and then incubated at room temperature for 10 minutes. Following incubation, plates were spun at 3,000×g for 30 seconds, sealed with an optical adhesive cover, and luminescence readings were measured with an EnVision Plate Reader.
Data was normalized to 0 luminescence for baseline. A four-parameter, non-linear regression curve fit was applied to dose-response data in GraphPad Prism data analysis software to determine the half maximal growth inhibitory concentration (GI50) for each compound.

[4] = Table 7-A, T-Rex 293 cells with doxycycline (increased ERα expression), 72 hours, CellTiter-Glo, read-out: (+) Dox GI50
[5] = Table 7-A, T-Rex 293 cells without doxycycline (lacking increased ERα expression), 72 hours, CellTiter-Glo, read-out: (−) Dox GI50
[6] = Table 8-A, MCF7 cells purchased from ATCC, six days, CellTiter-Glo, read-out: GI50
[7] = T-Rex 293 cells with doxycycline-induced ERα expression, 72 hours, CellTiter-Glo 2.0, read-out: (+) Dox TRex ERa (GI50)
[8] = T-Rex 293 cells without doxycycline, 72 hours, CellTiter-Glo 2.0, read-out: (−) Dox TRex ERa (GI50)
[9] = read-out: (+) Dox TRex ERa (GI50)
[10] = read-out: (−) Dox TRex ERa (GI50)

GI50 [3, 6] [nM]	SMILES	GI50 [1, 4] [nM]	GI50 [2, 5] [nM]	GI50 [1, 7] [nM]	GI50 [2, 8] [nM]	GI50 [1, 9] [nM]	GI50 [2, 10] [nM]	GI50 [3] [nM]
< 50	COc1cc(N2CCN(CC3(O)CCN(c4ccc(C5=N[C@@H](C)c6nnc(C)n6-c6sc(C)c(C)c65)c(F)c4)CC3)CC2)ccc1[C@H]1c2ccc(O)cc2CC[C@H]1c1cccc(F)c1 (single isomer, unassigned) [III-343]	50 to 500	50 to 500	–	–	–	–	–
< 50	COc1cc(N2CCN(CC3(O)CCN(c4ccc(C5=N[C@@H](C)c6nnc(C)n6-c6sc(C)c(C)c65)c(F)c4)CC3)CC2)ccc1[C@@H]1c2ccc(O)cc2CC[C@@H]1c1cccc(F)c1 (single isomer, unassigned) [III-344]	< 50	500 to 2500	–	–	–	–	–
50 to 500	CCN(CCCCNC(=O)C[C@@H]1N=C(c2ccc(Cl)cc2)c2c(sc(C)c2C)-n2c(C)nnc21)CCOc1ccc(C(=O)c2c(-c3ccc(O)cc3)sc3cc(O)ccc23)cc1 [I-1, (S)-2-(4-(4-chlorophenyl)-2,3,9-trimethyl-6H-thieno[3,2-f][1,2,4]triazolo[4,3-a][1,4]diazepin-6-yl)-N-(4-(ethyl(2-(4-(6-hydroxy-2-(4-hydroxyphenyl)benzo[b]thiophene-3-carbonyl)phenoxy)ethyl)amino)butyl) acetamide]	–	–	50 to 500	50 to 500	–	–	–
50 to 500	CCN(CCOCCOCCOCCOCCNC(=O)C[C@@H]1N=C(c2ccc(Cl)cc2)c2c(sc(C)c2C)-n2c(C)nnc21)CCOc1ccc(C(=O)c2c(-c3ccc(O)cc3)sc3cc(O)ccc23)cc1 [I-4, (S)-2-(4-(4-chlorophenyl)-2,3,9-trimethyl-6H-thieno[3,2-f][1,2,4]triazolo[4,3-a][1,4]diazepin-6-yl)-N-(3-ethyl-1-(4-(6-hydroxy-2-(4-hydroxyphenyl)benzo[b]thiophene-3-carbonyl)phenoxy)-6,9,12,15-tetraoxa-3-azaheptadecan-17-yl) acetamide]	–	–	< 50	500 to 2500	–	–	–
50 to 500	CCN(CCOCCOCCOCCOCCOCCOCCNC(=O)C[C@@H]1N=C(c2ccc(Cl)cc2)c2c(sc(C)c2C)-n2c(C)nnc21)CCOc1ccc(C(=O)c2c(-c3ccc(O)cc3)sc3cc(O)ccc23)cc1 [I-5, (S)-2-(4-(4-chlorophenyl)-2,3,9-trimethyl-6H-thieno[3,2-f][1,2,4]triazolo[4,3-a][1,4]diazepin-6-yl)-N-(3-ethyl-1-(4-(6-hydroxy-2-(4-hydroxyphenyl)benzo[b]thiophene-3-carbonyl)phenoxy)-6,9,12,15,18,21-hexaoxa-3-azatricosan-23-yl) acetamide]	–	–	< 50	500 to 2500	–	–	–
–	Cc1sc2c(c1C)C(c1ccc(N3CCN(c4ccc([C@@H]5c6ccc7n[nH]cc7c6C[C@@H](C)N5CC(F)(F)F)nc4)CC3)cc1)=N[C@@H](C)c1nnc(C)n1-2 [I-7, (S)-2,3,6,9-tetramethyl-4-(4-(4-(6-((6S,8R)-8-methyl-7-(2,2,2-trifluoroethyl)-6,7,8,9-tetrahydro-2H-pyrazolo[4,3-f]isoquinolin-6-yl)pyridin-3-yl)piperazin-1-yl)phenyl)-6H-thieno[3,2-f][1,2,4]triazolo[4,3-a][1,4]diazepine]	–	–	–	–	50 to 500	50 to 500	50 to 500
–	CCN(Cc1ccc(C2CN(CC3(O)CCN(c4ccc(C5=N[C@@H](C)c6nnc(C)n6-c6sc(C)c(C)c65)cc4)CC3)C2)cc1)c1cc(OC)ccc1C1CCc2cc(O)ccc2C1 (stereo partly drawn) [I-8, 4-((3-(4-((ethyl(2-(6-hydroxy-1,2,3,4-tetrahydronaphthalen-2-yl)-5-methoxyphenyl)amino)methyl)phenyl)azetidin-1-yl)methyl)-1-(4-((S)-2,3,6,9-tetramethyl-6H-thieno[3,2-f][1,2,4]triazolo[4,3-a][1,4]diazepin-4-yl)phenyl)piperidin-4-ol]	–	–	–	–	50 to 500	50 to 500	< 50
< 50	Cc1sc2c(c1C)C(c1ccc(OCCCCC3CCN(CCOc4ccc(C(=O)c5c(-c6ccc(O)cc6)sc6cc(O)ccc56)cc4)CC3)cc1)=N[C@@H](Cc1ncco1)c1nnc(C)n1-2 [I-9, (S)-(6-hydroxy-2-(4-hydroxyphenyl)benzo[b]thiophen-3-yl)(4-(2-(4-(4-(4-(2,3,9-trimethyl-6-(oxazol-2-ylmethyl)-6H-thieno[3,2-f][1,2,4]triazolo[4,3-a][1,4]diazepin-4-yl)phenoxy)butyl)piperidin-1-yl)ethoxy)phenyl)methanone]	–	–	< 50	50 to 500	–	–	–
< 50	Cc1sc2c(c1C)C(c1ccc(OC3CC4(CCN(CCOc5ccc(C(=O)c6c(-c7ccc(O)cc7)sc7cc(O)ccc67)cc5)CC4)C3)cc1)=N[C@@H](Cc1ncco1)c1nnc(C)n1-2 [I-10, (S)-(6-hydroxy-2-(4-hydroxyphenyl)benzo[b]thiophen-3-yl)(4-(2-(2-(4-(2,3,9-trimethyl-6-(oxazol-2-ylmethyl)-6H-thieno[3,2-f][1,2,4]triazolo[4,3-a][1,4]diazepin-4-yl)phenoxy)-7-azaspiro[3.5]nonan-7-yl)ethoxy)phenyl)methanone]	–	–	< 50	< 50	–	–	–
< 50	Cn1cc(-c2cc(C(C)(C)O)ccc2Oc2ccc(N3CC(CC4CCN(CCOc5ccc(C(=O)c6c(-c7ccc(O)cc7)sc7cc(O)ccc67)cc5)CC4)C3)cc2)c2cc[nH]c2c1=O [I-11, 4-(2-(4-(3-((1-(2-(4-(6-hydroxy-2-(4-hydroxyphenyl)benzo[b]thiophene-3-carbonyl)phenoxy)ethyl)piperidin-4-yl)methyl)azetidin-1-yl)phenoxy)-5-(2-hydroxypropan-2-yl)phenyl)-6-methyl-1,6-dihydro-7H-pyrrolo[2,3-c]pyridin-7-one]	–	–	< 50	< 50	–	–	–
